# Assay results as given in PubChem BioAssay (NCI).
#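 Five compound concentrations were applied to cells in 96-well plates for 48 hours; endpoints were derived by simple linear interpolation of the resulting dose-response curve. GI50 marks 50% less growth. Definition used: TGI = concentration required for complete inhibition of growth.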
# Key:
# Assay in all cases: NCI anticancer screen, dose series, 48 h
# [1] = tested on: CCRF-CEM leukemia
# [2] = tested on: NCI-H460 lung
# [3] = tested on: SN12C renal
# [4] = tested on: MOLT-4 leukemia
# [5] = tested on: RPMI-8226 leukemia
# [6] = tested on: MDA-MB-231 breast
# [7] = tested on: OVCAR-8 ovarian
# [8] = tested on: CAKI-1 renal
# [9] = tested on: BT-549 breast
# [10] = tested on: K-562 leukemia
# [11] = tested on: HCC-2998 colon
# [12] = tested on: SNB-19 CNS
# [13] = tested on: M14 melanoma
# [14] = tested on: HOP-62 NSCLC
# [15] = tested on: HCT-116 colon
# [16] = tested on: SNB-75 CNS
# [17] = tested on: HS 578T breast
# [18] = tested on: MALME-3M melanoma
# [19] = tested on: SK-MEL-2 melanoma
# [20] = tested on: ACHN renal
# [21] = tested on: LOX IMVI melanoma
# [22] = tested on: MCF7 breast
# [23] = tested on: COLO 205 colon
# [24] = tested on: SW-620 colon
# [25] = tested on: U251 CNS
# [26] = tested on: SK-MEL-28 melanoma
# [27] = tested on: TK-10 renal
# [28] = tested on: HT29 colon
# [29] = tested on: OVCAR-3 ovarian
# [30] = tested on: SF-268 CNS
# [31] = tested on: DU-145 prostate
# [32] = tested on: T-47D breast
# [33] = tested on: IGROV1 ovarian
# [34] = tested on: NCI/ADR-RES ovarian
# [35] = tested on: A549 NSCLC
# [36] = tested on: PC-3 prostate
# [37] = tested on: HOP-92 NSCLC
# [38] = tested on: KM12 colon
# [39] = tested on: RXF 393 renal
# [40] = tested on: HCT-15 colon
# [41] = tested on: UACC-257 melanoma
# [42] = tested on: EKVX NSCLC
# [43] = tested on: A498 renal
# [44] = tested on: SK-OV-3 ovarian
# [45] = tested on: HL-60(TB) leukemia
# [46] = tested on: 786-0 renal
# [47] = tested on: OVCAR-5 ovarian
# [48] = tested on: MDA-MB-435
# [49] = tested on: SK-MEL-5 melanoma
# [50] = tested on: SF-295 CNS
# [51] = tested on: UO-31 renal
# [52] = tested on: NCI-H522 lung
# [53] = tested on: NCI-H226 lung
# [54] = tested on: UACC-62 melanoma
# [55] = tested on: SF-539 CNS
# [56] = tested on: NCI-H23 lung
smiles,measurement,setting,value
CCCc1cc2cc(-n3nc(CC)c4c3CC(C)(C)CC4=O)cc(NC3CCC(O)CC3)c2c(=O)[nH]1 (configuration not stated),GI50,[1],1340 nM
same,TGI,[1],> 100000 nM
same,GI50,[2],482 nM
same,TGI,[2],> 100000 nM
same,GI50,[3],365 nM
same,TGI,[3],> 100000 nM
same,GI50,[4],503 nM
same,TGI,[4],> 100000 nM
same,GI50,[5],1580 nM
same,TGI,[5],> 100000 nM
same,GI50,[6],652 nM
same,TGI,[6],> 100000 nM
same,GI50,[7],2040 nM
same,TGI,[7],> 100000 nM
same,GI50,[8],1130 nM
same,TGI,[8],> 100000 nM
same,GI50,[9],2300 nM
same,TGI,[9],> 100000 nM
same,GI50,[10],185 nM
same,TGI,[10],> 100000 nM
same,GI50,[11],842 nM
same,TGI,[11],> 100000 nM
same,GI50,[12],3020 nM
same,TGI,[12],> 100000 nM
same,GI50,[13],572 nM
same,TGI,[13],> 100000 nM
same,GI50,[14],836 nM
same,TGI,[14],> 100000 nM
same,GI50,[15],193 nM
same,TGI,[15],> 100000 nM
same,GI50,[16],6220 nM
same,TGI,[16],> 100000 nM
same,GI50,[17],3490 nM
same,TGI,[17],> 100000 nM
same,GI50,[18],839 nM
same,TGI,[18],> 100000 nM
same,GI50,[19],2270 nM
same,TGI,[19],> 100000 nM
same,GI50,[20],495 nM
same,TGI,[20],> 100000 nM
same,GI50,[21],198 nM
same,TGI,[21],> 100000 nM
same,GI50,[22],289 nM
same,TGI,[22],> 100000 nM
same,GI50,[23],464 nM
same,TGI,[23],> 100000 nM
same,GI50,[24],370 nM
same,TGI,[24],> 100000 nM
same,GI50,[25],3370 nM
same,TGI,[25],> 100000 nM
same,GI50,[26],869 nM
same,TGI,[26],> 100000 nM
same,GI50,[27],621 nM
same,TGI,[27],> 100000 nM
same,GI50,[28],100 nM
same,TGI,[28],> 100000 nM
same,GI50,[29],4430 nM
same,TGI,[29],> 100000 nM
same,GI50,[30],7290 nM
same,TGI,[30],> 100000 nM
same,GI50,[31],530 nM
same,TGI,[31],> 100000 nM
same,GI50,[32],2060 nM
same,TGI,[32],> 100000 nM
same,GI50,[33],831 nM
same,TGI,[33],> 100000 nM
same,GI50,[34],3880 nM
same,TGI,[34],> 100000 nM
same,GI50,[35],1460 nM
same,TGI,[35],> 100000 nM
same,GI50,[36],1310 nM
same,TGI,[36],> 100000 nM
same,GI50,[37],1710 nM
same,TGI,[37],8600 nM
same,GI50,[38],758 nM
same,TGI,[38],> 100000 nM
same,GI50,[39],408 nM
same,TGI,[39],2410 nM
same,GI50,[40],400 nM
same,TGI,[40],> 100000 nM
same,GI50,[41],3000 nM
same,TGI,[41],> 100000 nM
same,GI50,[42],> 100000 nM
same,TGI,[42],> 100000 nM
same,GI50,[43],2020 nM
same,TGI,[43],> 100000 nM
same,GI50,[44],409 nM
same,TGI,[44],> 100000 nM
same,GI50,[45],315 nM
same,TGI,[45],> 100000 nM
same,GI50,[46],2950 nM
same,TGI,[46],> 100000 nM
same,GI50,[47],3510 nM
same,TGI,[47],> 100000 nM
same,GI50,[48],444 nM
same,TGI,[48],> 100000 nM
same,GI50,[49],1940 nM
same,TGI,[49],> 100000 nM
same,GI50,[50],759 nM
same,TGI,[50],> 100000 nM
same,GI50,[51],568 nM
same,TGI,[51],> 100000 nM
same,GI50,[52],1010 nM
same,TGI,[52],11500 nM
same,GI50,[53],2620 nM
same,TGI,[53],> 100000 nM
same,GI50,[54],487 nM
same,TGI,[54],> 100000 nM
same,GI50,[55],1720 nM
same,TGI,[55],89300 nM
same,GI50,[56],127 nM
same,TGI,[56],50800 nM
